Test results from patent US12516016B2, “GPX4 inhibitors, pharmaceutical compositions thereof, and their use for treating GPX4-mediated diseases” (EUBULUS BIOTHERAPEUTICS (HONG KONG) LIMITED, priority 2020, dated 2026).

Tested on: hepatocellular carcinoma cell line Hub-7
Experiment: Cell proliferation assay (CELL-TITER GLO cell viability)
Type: cell-based
Conditions: 24 h, Hub-7 cells, 24 h incubation, read-out: Inhibition of Cell Proliferation EC50
In short: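 […] cells (4,000/well) seeded overnight, then exposed 24 h to compound from 10 μM in 3-fold serial dilutions. Viability read by CELL-TITER GLO luminescence; EC50 values derived.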

| SMILES | EC50 |
| --- | --- |
| COc1ccc(N(C(=O)CCl)C(C)C(=O)NCCc2ccccc2)cc1Cl (stereo not drawn) [C14] | 500 to 2000 nM |
| C#CC(=O)N(c1cccc(Cl)c1)C1(C(=O)NCC(=O)NCc2ccccc2O)CCOCC1 [A185, 4-(N-(3-Chlorophenyl)propiolamido)-N-(2-((2-hydroxybenzyl)amino)-2-oxoethyl)tetrahydro-2H-pyran-4-carboxamide] | 100 to 500 nM |
| C#CC(=O)N(c1ccc(O)cc1)C(C(=O)NC(C)(C)C)c1ccc(N)cc1 (stereo not drawn) [A12, N-(1-(4-Aminophenyl)-2-(tert-butylamino)-2-oxoethyl)-N-(4-hydroxyphenyl)-propiolamide] | > 10000 nM |
| C#CC(=O)N(c1ccc(Cl)cc1)C(C(=O)NC(C)(C)C)c1cccc(N)c1 (stereo not drawn) [A119] | ≤ 100 nM |
| C#CC(=O)N(c1cccc(Cl)c1)C(C(=O)NCC1COC1)c1ccccc1 (stereo not drawn) [A181, N-(3-Chlorophenyl)-N-(2-((oxetan-3-ylmethyl)amino)-2-oxo-1-phenylethyl)-propiolamide] | ≤ 100 nM |
| C#CC(=O)N(c1ccc2c(cnn2C)c1)C1(C(=O)NCc2ccccc2)CCCC(=O)C1 (stereo not drawn) [A165, N-Benzyl-1-(N-(1-methyl-1H-indazol-5-yl)propiolamido)-3-oxocyclohexane-1-carboxamide] | 100 to 500 nM |
| C#CC(=O)N(c1ccc(NS(C)(=O)=O)cc1)C(C(=O)NC(C)(C)C)c1cccc(N)c1 (stereo not drawn) [A24, N-(1-(3-Aminophenyl)-2-(tert-butylamino)-2-oxoethyl)-N-(4-(methyl-sulfonamido)phenyl)propiolamide] | > 10000 nM |
| C#CC(=O)N(c1cccc2c1OCO2)C1(C(=O)NCc2ccccc2)CCOCC1 [A141, 4-(N-(Benzo[d][1,3]dioxol-4-yl)propiolamido)-N-benzyltetrahydro-2H-pyran-4-carboxamide] | ≤ 100 nM |
| COc1ccc(N(C(=O)CCl)C2(C(=O)NCCc3ccccc3)CCC(F)(F)CC2)cc1Cl [C20, 1-(2-Chloro-N-(3-chloro-4-methoxyphenyl)acetamido)-4,4-difluoro-N-phenethyl-cyclohexane-1-carboxamide] | 100 to 500 nM |
| C#CC(=O)N(c1ccc2c(c1)ncn2C)C1(C(=O)NCc2ccccc2)CCOCC1 [A156, N-Benzyl-4-(N-(1-methyl-1H-benzo[d]imidazol-5-yl)propiolamido)tetrahydro-2H-pyran-4-carboxamide] | 500 to 2000 nM |
| C#CC(=O)N(c1cccc(Cl)c1)C1(C(=O)NCc2ccccc2)CCC(C(=O)OC)CC1 (stereo not drawn) [A79, Methyl 4-(benzylcarbamoyl)-4-(N-(3-chlorophenyl)propiolamido)-cyclohexane-carboxylate] | ≤ 100 nM |
| C#CC(=O)N(c1cccc(Cl)c1)C1(C(=O)NCc2ccccc2)COC1 [A86, N-Benzyl-3-(N-(3-chlorophenyl)propiolamido)oxetane-3-carboxamide] | 100 to 500 nM |
| O=C(NCCc1ccccc1)C(c1ccc([N+](=O)[O-])cc1)N(Cc1ccccc1)C(=O)CCl (stereo not drawn) [C12, N-Benzyl-2-chloro-N-(1-(4-nitrophenyl)-2-oxo-2-(phenethylamino)ethyl)-acetamide] | 2000 to 10000 nM |
| C#CC(=O)N(C1CCC1)C1(C(=O)NCc2ccccc2)CCCC(C(=O)OC)C1 (stereo not drawn) [A168, Methyl 3-(benzylcarbamoyl)-3-(N-cyclobutylpropiolamido)cyclohexane-1-carboxylate] | 500 to 2000 nM |
| C#CC(=O)N(c1cccc2nsnc12)C(C(=O)NCc1ccccc1)c1ccccc1 (stereo not drawn) [A85, N-(Benzo[c][1,2,5]thiadiazol-4-yl)-N-(2-(benzylamino)-2-oxo-1-phenylethyl)-propiolamide] | ≤ 100 nM |
| C#CC(=O)N(c1ccc2ncn(C)c2c1)C1(C(=O)NCc2ccccc2)CCOCC1 [A154, N-Benzyl-4-(N-(1-methyl-1H-benzo[d]imidazol-6-yl)propiolamido)tetrahydro-2H-pyran-4-carboxamide] | 500 to 2000 nM |
| C=CC(=O)N(C1CCC1)C1(C(=O)NCc2ccccc2)CCOCC1 [B8, N-Benzyl-4-(N-cyclobutylacrylamido)tetrahydro-2H-pyran-4-carboxamide] | > 10000 nM |
| COc1cccc(N(C(=O)CCl)C(C(=O)NCCc2ccccc2)c2ccc([N+](=O)[O-])cc2)c1 (stereo not drawn) [C10, 2-Chloro-N-(3-methoxyphenyl)-N-(1-(4-nitrophenyl)-2-oxo-2-(phenethylamino)-ethyl)acetamide] | 100 to 500 nM |
| CN(C)C/C=C/C(=O)N(c1ccc2c(cnn2C)c1)C1(C(=O)NCc2ccccc2)CCOCC1 [B10, (E)-N-Benzyl-4-(4-(dimethylamino)-N-(1-methyl-1H-indazol-5-yl)but-2-enamido)tetrahydro-2H-pyran-4-carboxamide] | > 10000 nM |
| C#CC(=O)N(c1cccc2c1OCO2)C(C(=O)NCc1ccccc1)c1ccccc1 (stereo not drawn) [A97, N-(Benzo[d][1,3]dioxol-4-yl)-N-(2-(benzylamino)-2-oxo-1-phenylethyl)-propiolamide] | 100 to 500 nM |
| O=C(NCCc1ccccc1)C(c1ccc([N+](=O)[O-])cc1)N(Cc1cccs1)C(=O)CCl (stereo not drawn) [C8, 2-Chloro-N-(1-(4-nitrophenyl)-2-oxo-2-(phenethylamino)ethyl)-N-(thiophen-2-ylmethyl)acetamide] | 2000 to 10000 nM |
| C#CC(=O)N(c1cccc(Cl)c1)C1(C(=O)NCc2ccccc2)CCCCC1 [A101, N-Benzyl-1-(N-(3-chlorophenyl)propiolamido)cyclohexanecarboxamide] | ≤ 100 nM |
| C#CC(=O)N(c1ccc(S(N)(=O)=O)cc1)C(C(=O)NC(C)(C)C)c1cccc(N)c1 (stereo not drawn) [A25, N-(1-(3-Aminophenyl)-2-(tert-butylamino)-2-oxoethyl)-N-(4-sulfamoylphenyl)-propiolamide] | > 10000 nM |
| C#CC(=O)N(c1cccc(Cl)c1)C1(C(=O)NCc2ccccc2)CCCC(C(=O)OC)C1 (stereo not drawn) [A173, Methyl 3-(benzylcarbamoyl)-3-(N-(3-chlorophenyl)propiolamido)cyclohexane-carboxylate] | ≤ 100 nM |
| C#CC(=O)N(c1ccc2c(ccn2C)c1)C1(C(=O)NCc2ccccc2)CCOCC1 [A153, N-Benzyl-4-(N-(1-methyl-1H-indol-5-yl)propiolamido)tetrahydro-2H-pyran-4-carboxamide] | ≤ 100 nM |

Next, values leading:

| EC50 | SMILES |
| --- | --- |
| 2000 to 10000 nM | C#CC(=O)N(c1cccc(NC(C)=O)c1)C(C(=O)NCc1ccccc1)c1ccc(N)cc1 (stereo not drawn) [A63, N-(3-Acetamidophenyl)-N-(1-(4-aminophenyl)-2-(benzylamino)-2-oxoethyl)-propiolamide] |
| 2000 to 10000 nM | C#CC(=O)N(c1ccc(O)cc1)C(C(=O)NCc1ccccc1)c1ccc(N)cc1 (stereo not drawn) [A64, N-(1-(4-Aminophenyl)-2-(benzylamino)-2-oxoethyl)-N-(4-hydroxyphenyl)-propiolamide] |
| ≤ 100 nM | C#CC(=O)N(c1ccc(C#N)cc1)C(C(=O)NCc1ccccc1)c1cccc(N)c1 (stereo not drawn) [A48, N-(1-(3-Aminophenyl)-2-(benzylamino)-2-oxoethyl)-N-(4-cyanophenyl)-propiolamide] |
| ≤ 100 nM | C#CC(=O)N(c1ccc2c(c1)C(=O)OC2)C(C(=O)NCc1ccccc1)c1ccccc1 (stereo not drawn) [A143, N-(2-(Benzylamino)-2-oxo-1-phenylethyl)-N-(3-oxo-1,3-dihydroisobenzofuran-5-yl)propiolamide] |
| ≤ 100 nM | C#CC(=O)N(c1ccc(Cl)cc1)C(C(=O)NCc1ccccc1)c1ccc(N)cc1 (stereo not drawn) [A52, N-(2-(benzylamino)-1-(4-aminophenyl)-2-oxoethyl)-N-(4-chlorophenyl)propiolamide] |
| 500 to 2000 nM | C#CC(=O)N(c1ccc(CO)cc1)C(C(=O)NCc1ccccc1)c1ccc(N)cc1 (stereo not drawn) [A67, N-(1-(4-Aminophenyl)-2-(benzylamino)-2-oxoethyl)-N-(4-(hydroxymethyl)-phenyl)propiolamide] |
| ≤ 100 nM | C#CC(=O)N(c1cccc(Cl)c1F)C(C(=O)NCc1ccccc1)c1cccc(N)c1 (stereo not drawn) [A41, N-(1-(3-Aminophenyl)-2-(benzylamino)-2-oxoethyl)-N-(3-chloro-2-fluoro-phenyl)propiolamide] |
| > 10000 nM | C=C(F)C(=O)N(c1ccc(OC)c(Cl)c1)C(C(=O)NCc1ccccc1)c1cccc(N)c1 (stereo not drawn) [B4, N-(1-(3-Aminophenyl)-2-(benzylamino)-2-oxoethyl)-N-(3-chloro-4-methoxy-phenyl)-2-fluoroacrylamide] |
| ≤ 100 nM | C#CC(=O)N(c1cccc2cnn(C)c12)C(C(=O)NCc1ccccc1)c1ccccc1 (stereo not drawn) [A160, N-(2-(Benzylamino)-2-oxo-1-phenylethyl)-N-(1-methyl-1H-indazol-7-yl)propiolamide] |
| 500 to 2000 nM | C#CC(=O)N(c1cccc(Cl)c1)C(C(=O)NCc1ccccc1)c1ccncc1 (stereo not drawn) [A124] |
| 2000 to 10000 nM | C#CC(=O)N(c1cccc(NC(C)=O)c1)C(C(=O)NCc1ccccc1)c1cccc(N)c1 (stereo not drawn) [A44, N-(3-Acetamidophenyl)-N-(1-(3-aminophenyl)-2-(benzylamino)-2-oxoethyl)-propiolamide] |
| 2000 to 10000 nM | C#CC(=O)N(c1cccc(CO)c1)C(C(=O)NCc1ccccc1)c1cccc(N)c1 (stereo not drawn) [A39, N-(1-(3-Aminophenyl)-2-(benzylamino)-2-oxoethyl)-N-(3-(hydroxymethyl)-phenyl)propiolamide] |
| ≤ 100 nM | C#CC(=O)N(c1ccc2cnn(C)c2c1)C(C(=O)NCc1ccccc1)c1ccccc1 (stereo not drawn) [A104, N-(2-(Benzylamino)-2-oxo-1-phenylethyl)-N-(1-methyl-1H-indazol-6-yl)-propiolamide] |
| ≤ 100 nM | C#CC(=O)N(c1cccc(C(=O)OC)c1)C(C(=O)NCc1ccccc1)c1ccc(N)cc1 (stereo not drawn) [A54, Methyl 3-(N-(1-(4-aminophenyl)-2-(benzylamino)-2-oxoethyl)propiolamido)-benzoate] |
| > 10000 nM | C#CC(=O)N(c1cccc(C(N)=O)c1)C(C(=O)NCc1ccccc1)c1ccc(N)cc1 (stereo not drawn) [A62, 3-(N-(1-(4-Aminophenyl)-2-(benzylamino)-2-oxoethyl)propiolamido)-benzamide] |
| ≤ 100 nM | C#CC(=O)N(c1cccc(O)c1)C(C(=O)NCc1ccccc1)c1cccc(N)c1 (stereo not drawn) [A37, N-(1-(3-Aminophenyl)-2-(benzylamino)-2-oxoethyl)-N-(3-hydroxyphenyl)-propiolamide] |

Same assay, conditions: Hub-7 cells, 24 h incubation, read-out: Inhibition of Cell Proliferation EC50

| EC50 | SMILES |
| --- | --- |
| 2000 to 10000 nM | Nc1cccc(N(C(=O)CCl)C(C(=O)NCCc2ccccc2)c2cccs2)c1 (stereo not drawn) [C13] |
